System: HCC1143
Experiment: normalised response (% of control), CellTiter-Glo; higher = more viable cells (100 = DMSO, 0 = benzethonium chloride kill control)
Conditions: incubation time: 72 h
Experimental: (§1)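 DSRT, 72 h incubation, CellTox Green / CellTiter-Glo readout. Signal is normalised to DMSO and benzethonium chloride controls. Value is the normalised response at the highest dose.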

Point of comparison: `C=C(c1ccc(C(=O)O)cc1)c1cc2c(cc1C)C(C)(C)CCC2(C)C` [Bexarotene] (10000 nM), normalised response 101%. Against it:
- Cn1c(CCCC(=O)O)nc2cc(N(CCCl)CCCl)ccc21 [Bendamustine] (10000 nM) — higher, 111%
- CN[C@@H]1C[C@H]2O[C@@](C)([C@@H]1OC)n1c3ccccc3c3c4c(c5c6ccccc6n2c5c31)C(=O)N[C@H]4O [UCN-01] (10000 nM) — lower, 8.19%
- C#Cc1cccc(Nc2ncnc3cc(OCCOC)c(OCCOC)cc23)c1 [Erlotinib] (10000 nM) — lower, 79.7%
- N.N.[Cl][Pt][Cl] [Cisplatin] (1000 nM) — higher, 103%
- Cn1c(Nc2ccc(C(F)(F)F)cc2)nc2cc(Oc3ccnc(-c4ncc(C(F)(F)F)[nH]4)c3)ccc21 [RAF265] (1000 nM) — lower, 94.2%
- C[C@]12CC[C@@H]3c4ccc(O)cc4C[C@@H](CCCCCCCCC[S+]([O-])CCCC(F)(F)C(F)(F)F)[C@H]3[C@@H]1CC[C@@H]2O (stereo not given in full) [Fulvestrant] (1000 nM) — higher, 106%

System: SK-BR-3
Experiment: as above
Conditions: incubation time: 72 h
Experimental: as §1

Point of comparison: `N.N.[Cl][Pt][Cl]` [Cisplatin] (1000 nM), normalised response 92.3%. Against it:
- O=C1CCC(N2C(=O)c3ccccc3C2=O)C(=O)N1 (stereo not given) [Thalidomide] (10000 nM) — higher, 106%
- Oc1nc(-c2ccc(C(F)(F)F)cc2)nc2c1CSCC2 [XAV-939] (10000 nM) — lower, 84.5%
- O=P1(NCCCl)OCCCN1CCCl (stereo not given) [Ifosfamide] (10000 nM) — higher, 93.1%
- Clc1ccc(Nc2nnc(Cc3ccncc3)c3ccccc23)cc1 [Vatalanib] (10000 nM) — higher, 95.5%
- C[C@@H](Oc1cc(-c2cnn(C3CCNCC3)c2)cnc1N)c1c(Cl)ccc(F)c1Cl [Crizotinib] (1000 nM) — higher, 104%
- CCC1(c2ccc(N)cc2)CCC(=O)NC1=O (stereo not given) [Aminoglutethimide] (10000 nM) — higher, 97.2%
- Cc1ccc(C(=O)N(CCCN)[C@@H](c2oc3cc(Cl)ccc3c(=O)c2Cc2ccccc2)C(C)C)cc1 (100 nM) — lower, 91.9%
- Cn1c(CCCC(=O)O)nc2cc(N(CCCl)CCCl)ccc21 [Bendamustine] (10000 nM) — higher, 105%
- CN[C@@H]1C[C@H]2O[C@@](C)([C@@H]1OC)n1c3ccccc3c3c4c(c5c6ccccc6n2c5c31)C(=O)N[C@H]4O [UCN-01] (10000 nM) — lower, 2.06%
- C#Cc1cccc(Nc2ncnc3cc(OCCOC)c(OCCOC)cc23)c1 [Erlotinib] (10000 nM) — lower, 48%
- Cn1c(Nc2ccc(C(F)(F)F)cc2)nc2cc(Oc3ccnc(-c4ncc(C(F)(F)F)[nH]4)c3)ccc21 [RAF265] (1000 nM) — lower, 92.1%
- C=C(c1ccc(C(=O)O)cc1)c1cc2c(cc1C)C(C)(C)CCC2(C)C [Bexarotene] (10000 nM) — lower, 72.1%
- C[C@]12CC[C@@H]3c4ccc(O)cc4C[C@@H](CCCCCCCCC[S+]([O-])CCCC(F)(F)C(F)(F)F)[C@H]3[C@@H]1CC[C@@H]2O (stereo not given in full) [Fulvestrant] (1000 nM) — higher, 104%

System: MDA-MB-453
Experiment: normalised viability (% of control), CellTiter-Blue; higher = more viable cells (about 100 = DMSO control)
Conditions: incubation time: 72 h
Experimental: (§2)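 DSRT, CellTiter-Blue viability, 72 h incubation. Signal is normalised to DMSO and benzethonium chloride controls. Value is the normalised response at dose 9.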

Point of comparison: `Cn1c(Nc2ccc(C(F)(F)F)cc2)nc2cc(Oc3ccnc(-c4ncc(C(F)(F)F)[nH]4)c3)ccc21` [RAF265] (1000 nM), normalised viability 89.2%. Against it:
- O=C1CCC(N2C(=O)c3ccccc3C2=O)C(=O)N1 (stereo not given) [Thalidomide] (10000 nM) — higher, 102%
- Oc1nc(-c2ccc(C(F)(F)F)cc2)nc2c1CSCC2 [XAV-939] (10000 nM) — lower, 71.5%
- O=P1(NCCCl)OCCCN1CCCl (stereo not given) [Ifosfamide] (10000 nM) — higher, 106%
- Clc1ccc(Nc2nnc(Cc3ccncc3)c3ccccc23)cc1 [Vatalanib] (10000 nM) — higher, 91.1%
- CCC1(c2ccc(N)cc2)CCC(=O)NC1=O (stereo not given) [Aminoglutethimide] (10000 nM) — lower, 81.6%
- Cn1c(CCCC(=O)O)nc2cc(N(CCCl)CCCl)ccc21 [Bendamustine] (10000 nM) — higher, 121%
- CN[C@@H]1C[C@H]2O[C@@](C)([C@@H]1OC)n1c3ccccc3c3c4c(c5c6ccccc6n2c5c31)C(=O)N[C@H]4O [UCN-01] (10000 nM) — lower, 2.09%
- C#Cc1cccc(Nc2ncnc3cc(OCCOC)c(OCCOC)cc23)c1 [Erlotinib] (10000 nM) — lower, 55.1%
- C=C(c1ccc(C(=O)O)cc1)c1cc2c(cc1C)C(C)(C)CCC2(C)C [Bexarotene] (10000 nM) — lower, 86.7%

System: HDQ-P1
Experiment: as above
Conditions: incubation time: 72 h
Experimental: as §2

Point of comparison: `Oc1nc(-c2ccc(C(F)(F)F)cc2)nc2c1CSCC2` [XAV-939] (10000 nM), normalised viability 76.2%. Against it:
- O=C1CCC(N2C(=O)c3ccccc3C2=O)C(=O)N1 (stereo not given) [Thalidomide] (10000 nM) — higher, 105%
- O=P1(NCCCl)OCCCN1CCCl (stereo not given) [Ifosfamide] (10000 nM) — higher, 125%
- Clc1ccc(Nc2nnc(Cc3ccncc3)c3ccccc23)cc1 [Vatalanib] (10000 nM) — higher, 90.6%
- CCC1(c2ccc(N)cc2)CCC(=O)NC1=O (stereo not given) [Aminoglutethimide] (10000 nM) — higher, 120%
- Cn1c(CCCC(=O)O)nc2cc(N(CCCl)CCCl)ccc21 [Bendamustine] (10000 nM) — higher, 113%
- CN[C@@H]1C[C@H]2O[C@@](C)([C@@H]1OC)n1c3ccccc3c3c4c(c5c6ccccc6n2c5c31)C(=O)N[C@H]4O [UCN-01] (10000 nM) — lower, 2.76%
- C#Cc1cccc(Nc2ncnc3cc(OCCOC)c(OCCOC)cc23)c1 [Erlotinib] (10000 nM) — lower, 68%
- Cn1c(Nc2ccc(C(F)(F)F)cc2)nc2cc(Oc3ccnc(-c4ncc(C(F)(F)F)[nH]4)c3)ccc21 [RAF265] (1000 nM) — lower, 34%
